Holding throughout (experiment): Biological Assay
Assay [1] has as its target T1, Bifunctional dihydrofolate reductase-thymidylate synthase (Toxoplasma gondii, UniProt Q07422).
T1 sequence (Q07422 whole entry): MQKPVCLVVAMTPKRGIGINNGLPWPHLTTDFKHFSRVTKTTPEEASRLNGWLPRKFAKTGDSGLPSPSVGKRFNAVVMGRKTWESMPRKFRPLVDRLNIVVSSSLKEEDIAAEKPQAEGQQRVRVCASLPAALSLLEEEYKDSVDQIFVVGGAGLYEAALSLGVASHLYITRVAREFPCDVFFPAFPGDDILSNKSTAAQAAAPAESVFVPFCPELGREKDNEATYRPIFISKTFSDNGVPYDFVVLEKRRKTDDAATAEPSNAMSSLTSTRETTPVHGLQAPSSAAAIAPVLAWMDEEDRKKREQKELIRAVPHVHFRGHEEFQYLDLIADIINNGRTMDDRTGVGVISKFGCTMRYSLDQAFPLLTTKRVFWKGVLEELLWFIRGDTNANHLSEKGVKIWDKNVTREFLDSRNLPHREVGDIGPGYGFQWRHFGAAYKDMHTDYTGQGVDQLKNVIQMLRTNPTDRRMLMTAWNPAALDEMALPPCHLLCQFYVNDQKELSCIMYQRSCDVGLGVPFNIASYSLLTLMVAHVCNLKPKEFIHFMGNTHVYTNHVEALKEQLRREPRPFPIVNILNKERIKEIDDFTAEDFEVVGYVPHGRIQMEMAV
The method, then: (§1) The synthesized compounds were evaluated for their ability to inhibit DHFR from pc, tg, ma, and rl using a continuous spectrophotometric assay measuring oxidation at […] of NADPH at 37°C under conditions of saturating substrate and cofactor as previously described [Broughton et al., Antimicrob. Agents Chemother., 35:1348-55; Chio et al., Antimicrob. Agents Chemother., 37:1914-23].

Assay [2] addresses T2, Dihydrofolate reductase (Rattus norvegicus, UniProt Q920D2).
T2 sequence (Q920D2 whole entry): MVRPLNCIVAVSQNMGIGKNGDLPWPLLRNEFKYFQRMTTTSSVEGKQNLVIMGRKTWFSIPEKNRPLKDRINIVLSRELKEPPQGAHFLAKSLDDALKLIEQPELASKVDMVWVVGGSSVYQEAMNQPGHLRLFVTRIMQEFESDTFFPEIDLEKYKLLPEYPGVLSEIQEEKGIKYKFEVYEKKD
The procedure:
as §1

The target of assay [3] is T3, Dihydrofolate reductase (Mycobacterium avium, UniProt O30463).
T3 sequence (O30463 whole entry): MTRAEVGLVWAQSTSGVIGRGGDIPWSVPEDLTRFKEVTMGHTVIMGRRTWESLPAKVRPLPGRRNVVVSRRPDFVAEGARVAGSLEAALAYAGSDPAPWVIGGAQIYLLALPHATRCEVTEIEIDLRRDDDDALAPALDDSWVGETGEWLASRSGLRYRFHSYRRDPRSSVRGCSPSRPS
The procedure:
as §1

Assay [4] addresses T4, Dihydrofolate reductase (Pneumocystis carinii, UniProt P16184).
T4 sequence (P16184 whole entry): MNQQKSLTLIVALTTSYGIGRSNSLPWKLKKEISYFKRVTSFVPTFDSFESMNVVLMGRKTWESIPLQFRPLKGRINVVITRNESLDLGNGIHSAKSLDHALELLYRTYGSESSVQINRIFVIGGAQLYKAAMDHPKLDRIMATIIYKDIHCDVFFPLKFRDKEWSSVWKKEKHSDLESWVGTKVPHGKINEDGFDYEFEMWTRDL
The method, then: as §1

Each structure is given as a SMILES string. Structures can show the parent of a compound that is named as a salt.

As usually defined, the IC50 is the midpoint of a concentration-inhibition curve. Read a high IC50 as weaker potency in that assay. With `CC1(C)N=C(N)N=C(N)N1c1ccc(OCc2ccccc2)cc1`, the IC50 in assay [1] amounted to 0.032 µM; in assay [2], 0.12 µM; in assay [3], 14.4 µM; in assay [4], 5.4 µM.
`CC1(C)N=C(N)N=C(N)N1c1ccc(OCc2ccc(Cl)cc2Cl)cc1` [1-(4-(2,4-Dichlorobenzyloxy)phenyl)-6,6-dimethyl-1-,6-dihydro-1,3,5-triazine-2,4-diamine hydrochloride (B2-04)]: the IC50 in assay [1] was found to be 0.029 µM; in assay [2] it was 0.018 µM; in assay [3] it was 11.2 µM; in assay [4], 1.08 µM.
`CC1(C)N=C(N)N=C(N)N1c1ccc(OCc2ccccc2Cl)cc1` [1-(4-(2-Chlorobenzyloxy)phenyl)-6,6-dimethyl-1,6-dihydro-1,3,5-triazine-2,4-diamine hydrochloride (B2-03)]: the half-inhibitory concentration (IC50) in assay [1] worked out at 0.04 µM; in assay [2] it was 0.073 µM; in assay [3], 10.3 µM; in assay [4], 2.53 µM.
Consider `CC1(C)N=C(N)N=C(N)N1c1ccc(OCc2cccc(Cl)c2)cc1` [1-(4-(3-Chlorobenzyloxy)phenyl)-6,6-dimethyl-1,6-dihydro-1,3,5-triazine-2,4-diamine hydrochloride (B2-02)], for which the concentration for half-maximal inhibition (IC50) in assay [1] is 0.02 µM; in assay [2], 0.034 µM; in assay [3], 4.08 µM; in assay [4], 1.11 µM.
For `CC1(C)N=C(N)N=C(N)N1c1ccc(OCc2ccc(Br)cc2)cc1` [1-(4-(4-Bromobenzyloxy)phenyl)-6,6-dimethyl-1,6-dihydro-1,3,5-triazine-2,4-diamine hydrochloride (B2-05)], the IC50 was determined as 0.033 µM in assay [1], 0.033 µM in assay [2], 7.32 µM in assay [3] and 0.829 µM in assay [4].
Turning to `COc1ccc(COc2ccc(N3C(N)=NC(N)=NC3(C)C)cc2)cc1` [1-(4-(4-Methoxybenzyloxy)phenyl)-6,6-dimethyl-1,6-dihydro-1,3,5-triazine-2,4-diamine hydrochloride (B2-06)], the 50% inhibitory concentration (IC50) stood at 0.019 µM in assay [1], 0.048 µM in assay [2], 3.38 µM in assay [3] and 1.69 µM in assay [4].
On to `CC1(C)N=C(N)N=C(N)N1c1ccc(OCc2ccc(-c3ccccc3)cc2)cc1` [1-(4-(Biphenyl-4-ylmethoxy)phenyl)-6,6-dimethyl-1,6-dihydro-1,3,5-triazine-2,4-diamine hydrochloride (B2-07)], for which the IC50 in assay [1] was determined as 0.012 µM; in assay [2] it was 0.026 µM; in assay [3], 10.2 µM; in assay [4] it was 0.403 µM.
For `CC1(C)N=C(N)N=C(N)N1c1ccc(OCCN2C(=O)c3ccccc3C2=O)cc1` [2-(2-(4-(4,6-Diamino-2,2-dimethyl-1,3,5-triazin-1(2H)-yl)phenoxy)ethyl)isoindoline-1,3-dione hydrochloride (A2-01)] the same measures were 0.424 µM, 1.16 µM, 44.6 µM and 15.4 µM.
Turning to `CC1(C)N=C(N)N=C(N)N1c1ccc(OCC(O)CN2C(=O)c3ccccc3C2=O)cc1` (stereo not given) [2-(3-(4-(4,6-Diamino-2,2-dimethyl-1,3,5-triazin-1(2H)-yl)phenoxy)-2-hydroxypropyl)isoindoline-1,3-dione hydrochloride (A2-04)], the half-maximal inhibitory concentration (IC50) came to 0.523 µM in assay [1], 1.94 µM in assay [2], 154 µM in assay [3] and 34.6 µM in assay [4].
In the case of `CC1(C)N=C(N)N=C(N)N1c1ccc(OCCCN2C(=O)c3ccccc3C2=O)cc1` [2-(3-(4-(4,6-Diamino-2,2-dimethyl-1,3,5-triazin-1(2H)-yl)phenoxy)propyl)isoindoline-1,3-dione hydrochloride (A2-02)], the IC50 in assay [1] was determined as 0.169 µM; in assay [2], 0.556 µM; in assay [3] it was 35.2 µM; in assay [4], 6.49 µM.
Consider `CC1(C)N=C(N)N=C(N)N1c1ccc(OCCCCN2C(=O)c3ccccc3C2=O)cc1` [2-(4-(4-(4,6-Diamino-2,2-dimethyl-1,3,5-triazin-1(2H)-yl)phenoxy)butyl)isoindoline-1,3-dione (A2-03)], for which the IC50 in assay [1] is 0.079 µM; in assay [2], 0.033 µM; in assay [3], 8.9 µM; in assay [4], 2.61 µM.
For `N=C(N)NC(=N)Nc1ccc(OCc2ccccc2)cc1` [N-[4-(Benzyloxy)phenyl]imidodicarbonimidic diamide hydrochloride (B1-01)], the IC50 in assay [1], in assay [2], in assay [3] and in assay [4] was 132 µM throughout.
Turning to `NC(N)=N/C(N)=N/c1ccc(OCc2ccc(-c3ccccc3)cc2)cc1` [N-[4-(Biphenyl-4-ylmethoxy)phenyl]imidodicarbonimidic diamide hydrochloride (B1-07)], the concentration for half-maximal inhibition (IC50) worked out at 111 µM in assay [1], 67 µM in assay [2], 104 µM in assay [3] and 104 µM in assay [4].
Take `N=C(N)NC(=N)Nc1ccc(OCCN2C(=O)c3ccccc3C2=O)cc1` [N-{4-[2-(1,3-Dioxo-1,3-dihydro-2H-isoindol-2-yl)ethoxy]phenyl}imidodicarbonimidic diamide hydrochloride (A1-01)]: the IC50 in assay [1] came to 40.3 µM; in assay [2], 67.7 µM; in assay [3], 51.4 µM; in assay [4] it was 51.4 µM.
With `N=C(N)NC(=N)Nc1ccc(OCCCN2C(=O)c3ccccc3C2=O)cc1` [N-{4-[3-(1,3-Dioxo-1,3-dihydro-2H-isoindol-2-yl)propoxy]phenyl}imidodicarbonimidic diamide hydrochloride (A1-02)], the IC50 in assay [1] is 135 µM; in assay [2], 106 µM; in assay [3] it was 106 µM; in assay [4] it was 106 µM.
Regarding `NC(N)=N/C(N)=N/c1ccc(OCc2ccc(Cl)cc2Cl)cc1` [N-{4-[(2,4-Dichlorobenzyl)oxy]phenyl}imidodicarbonimidic diamide hydrochloride (B1-04)], the half-maximal inhibitory concentration (IC50) in assay [1] came to 111 µM; in assay [2], 27.9 µM; in assay [3], 111 µM; in assay [4], 123 µM.
For the compound `N=C(N)NC(=N)Nc1ccc(OCc2ccccc2Cl)cc1` [N-{4-[(2-Chlorobenzyl)oxy]phenyl}imidodicarbonimidic diamide hydrochloride (B1-03)], the concentration for half-maximal inhibition (IC50) was 9.95 µM in assay [1], 20.8 µM in assay [2], 152 µM in assay [3] and 293 µM in assay [4].
For the compound `NC(N)=N/C(N)=N/c1ccc(OCc2cccc(Cl)c2)cc1` [N-{4-[(3-Chlorobenzyl)oxy]phenyl}imidodicarbonimidic diamide hydrochloride (B1-02)], the 50% inhibitory concentration (IC50) was 58.5 µM in assay [1], 68.7 µM in assay [2], 63.8 µM in assay [3] and 104 µM in assay [4].
In the same order, the values of `COc1cccc(COc2ccc(NC(=N)NC(=N)N)cc2)c1` [N-{4-[(3-Methoxybenzyl)oxy]phenyl}imidodicarbonimidic diamide hydrochloride (B1-06)] are 8.4 µM, 14.7 µM, 15.5 µM and 15.5 µM.
On to `N=C(N)NC(=N)Nc1ccc(OCc2ccc(Br)cc2)cc1` [N-{4-[(4-Bromobenzyl)oxy]phenyl}imidodicarbonimidic diamide hydrochloride (B1-05)], for which the IC50 in assay [1] is 21.4 µM; in assay [2] it was 74.9 µM; in assay [3], 127 µM; in assay [4] it was 164 µM.

The record behind these values is BindingDB's records for doi:10.3109/14756360903179443 (Institute of Chemical Technology, 2010).
